Measured values: ChEMBL document CHEMBL5543172, “Novel Isoalantolactone-Based Derivatives as Potent NLRP3 Inflammasome Inhibitors: Design, Synthesis, and Biological Characterization” (J Med Chem, 2024)
Active and inactive are the calls of the source.

Columns and labels:
[1] = molecular target: NACHT, LRR and PYD domains-containing protein 3 (Mus musculus) (UniProt Q8R4B8); assay: Inhibition of NLRP3 inflammasome activation in LPS/Nigericin induced mouse BMDM cells assessed as effect on pro-IL-1 beta expression at 0.25 to 1 uM preincubated with LPS for 3 hrs followed by compound addition for 40 mins and further stimulated with nigericin for 40 mins by Western blot analysis; format: cell-based; conditions: dose 0.25-1 µM, time 80.0 min
[2] = molecular target: Glucocorticoid receptor (Homo sapiens) (UniProt P04150); assay: Inhibition of GR receptor (unknown origin) at 1 uM relative to control
Homo sapiens = organism: Homo sapiens; assay: Activation of GlyRalpha1beta (unknown origin) at 1 uM relative to control
[3] = molecular target: Mu-type opioid receptor (Homo sapiens) (UniProt P35372); assay: Inhibition of mu opioid receptor (unknown origin) at 1 uM relative to control
BMDM = assay: Induction of DNA damage in mouse BMDM cells assessed as DNA fragmentation at 1 uM measured after 24 hrs by fluorescence microscope based comet assay; format: functional, cell-based
THP-1 [4] = assay: Binding affinity to NLRP3deltaLRR mutant in PMA- differentiated human THP-1 cells assessed as increase in thermal stability of protein at 1 uM pretreated with LPS for 3 hrs followed by compound addition at 45 to 63 degC for 2 mins by CETSA analysis; format: cell-based
[5] = molecular target: Substance-P receptor (Homo sapiens) (UniProt P25103); assay: Inhibition of NK1 receptor (unknown origin) at 1 uM relative to control
[6] = molecular target: Cannabinoid receptor 2 (Homo sapiens) (UniProt P34972); assay: Inhibition of CB2 receptor (unknown origin) at 1 uM relative to control
[7] = molecular target: Transient receptor potential cation channel subfamily V member 1 (Homo sapiens) (UniProt Q8NER1); assay: Inhibition of TRPV1 (unknown origin) at 1 uM relative to control
[8] = Tmax in male C57BL/6 mouse at 30 mg/kg, ip measured upto 1440 mins by LC-MS/MS analysis; format: ADME, organism-based; conditions: in vivo
[9] = molecular target: NACHT, LRR and PYD domains-containing protein 3 (Mus musculus) (UniProt Q8R4B8); assay: Inhibition of NLRP3 inflammasome activation in LPS/Nigericin induced mouse BMDM cells assessed as effect on pro-casapase-1 expression at 0.25 to 1 uM preincubated with LPS for 3 hrs followed by compound addition for 40 mins and further stimulated with nigericin for 40 mins by Western blot analysis; format: cell-based; conditions: dose 0.25-1 µM, time 80.0 min
Mus musculus [10] = assay: Anti-colitis activity against DSS-induced ulcerative colitis C57BL/6 mouse model assessed as reduction in IL-1 beta level at 15 to 30 mg/kg, ip by ELISA method; format: functional, organism-based; conditions: dose 15-30 mg/kg
[11] = molecular target: Sodium-dependent serotonin transporter (Homo sapiens) (UniProt P31645); assay: Inhibition of 5-HTT (unknown origin) at 1 uM relative to control
[12] = molecular target: Alpha-1A adrenergic receptor (Homo sapiens) (UniProt P35348); assay: Activation of alpha 1A adrenergic receptor (unknown origin) at 1 uM relative to control
[13] = Half life in male C57BL/6 mouse at 30 mg/kg, ip measured upto 1440 mins by LC-MS/MS analysis; format: ADME, organism-based; conditions: in vivo
[14] = molecular target: NACHT, LRR and PYD domains-containing protein 3 (Mus musculus, UniProt Q8R4B8); assay: Inhibition of NLRP3 inflammasome activation in LPS-activated mouse BMDM cells assessed as inhibition of nigericin induced IL-1beta secretion preincubated with LPS for 3 hrs followed by compound addition for 40 mins and further stimulated with nigericin for 40 mins by ELISA method; format: cell-based
Mus musculus [15] = assay: Anti-colitis activity against DSS-induced ulcerative colitis C57BL/6 mouse model assessed as alleviation of thickening of inherent base layer in colon at 15 to 30 mg/kg, ip administered daily and measured after 10 days by H and E staining based analysis; format: functional, organism-based; conditions: dose 15-30 mg/kg, time 10.0 day
Cytochrome P450 2C9 = Cytochrome P450 2C9 (Homo sapiens, UniProt P11712); assay: Inhibition of CYP2C9 in human liver microsomes using tolbutamide as substrate preincubated for 5 mins followed by NADPH addition and measured after 30 to 60 mins by LC-MS/MS analysis; format: ADME, Microsome
[16] = molecular target: NACHT, LRR and PYD domains-containing protein 3 (Mus musculus) (UniProt Q8R4B8); assay: Inhibition of NLRP3 inflammasome activation in LPS/Nigericin induced mouse BMDM cells assessed as effect on NLRP3 expression at 0.25 to 1 uM preincubated with LPS for 3 hrs followed by compound addition for 40 mins and further stimulated with nigericin for 40 mins by Western blot analysis; format: cell-based; conditions: dose 0.25-1 µM, time 80.0 min
[17] = molecular target: P2X purinoceptor 3 (Homo sapiens) (UniProt P56373); assay: Inhibition of P2X3 (unknown origin) at 1 uM relative to control
[18] = molecular target: Mu-type opioid receptor (Homo sapiens) (UniProt P35372); assay: Activation of mu opioid receptor (unknown origin) at 1 uM relative to control
THP-1 [19] = assay: Inhibition of pyroptosis in LPS/nigericin induced PMA-differentiated human THP-1 cells assessed as reduction in LDH release at […] preincubated with LPS for 3 hrs followed by compound addition for 40 mins and further stimulated with nigericin for 40 mins by LDH assay; format: functional, cell-based; conditions: dose lower 0.25 µM, time 80.0 min
[20] = molecular target: NACHT, LRR and PYD domains-containing protein 3 (Mus musculus) (UniProt Q8R4B8); assay: Inhibition of NLRP3 in LPS/nigericin induced […] mouse BMDM cells assessed as inhibition of IL-18 secretion 0.25 to 1 uM preincubated with LPS for 3 hrs followed by compound addition for 40 mins and further stimulated with nigericin for 40 mins by ELISA method; format: cell-based; conditions: dose 0.25-1 µM, time 80.0 min
Mus musculus [21] = assay: Anti-colitis activity against DSS-induced ulcerative colitis C57BL/6 mouse model assessed as improvement in body weight loss at 15 to 30 mg/kg, ip administered daily and measured upto 10 days; format: functional, organism-based; conditions: dose 15-30 mg/kg, time <= 10.0 day
Mus musculus [22] = assay: Anti-colitis activity against DSS-induced ulcerative colitis C57BL/6 mouse model assessed as reduction in DAI score at 15 to 30 mg/kg, ip administered daily and measured upto 10 days; format: functional, organism-based; conditions: dose 15-30 mg/kg, time <= 10.0 day
[23] = molecular target: Adenosine receptor A2a (Homo sapiens) (UniProt P29274); assay: Inhibition of adenosine A2A receptor (unknown origin) at 1 uM relative to control
Cytochrome P450 2D6 = Cytochrome P450 2D6 (Homo sapiens, UniProt P10635); assay: Inhibition of CYP2D6 in human liver microsomes using dextromethorphan as substrate preincubated for 5 mins followed by NADPH addition and measured after 30 to 60 mins by LC-MS/MS analysis; format: ADME, Microsome
Cytochrome P450 2D6, sequence (P10635 whole entry): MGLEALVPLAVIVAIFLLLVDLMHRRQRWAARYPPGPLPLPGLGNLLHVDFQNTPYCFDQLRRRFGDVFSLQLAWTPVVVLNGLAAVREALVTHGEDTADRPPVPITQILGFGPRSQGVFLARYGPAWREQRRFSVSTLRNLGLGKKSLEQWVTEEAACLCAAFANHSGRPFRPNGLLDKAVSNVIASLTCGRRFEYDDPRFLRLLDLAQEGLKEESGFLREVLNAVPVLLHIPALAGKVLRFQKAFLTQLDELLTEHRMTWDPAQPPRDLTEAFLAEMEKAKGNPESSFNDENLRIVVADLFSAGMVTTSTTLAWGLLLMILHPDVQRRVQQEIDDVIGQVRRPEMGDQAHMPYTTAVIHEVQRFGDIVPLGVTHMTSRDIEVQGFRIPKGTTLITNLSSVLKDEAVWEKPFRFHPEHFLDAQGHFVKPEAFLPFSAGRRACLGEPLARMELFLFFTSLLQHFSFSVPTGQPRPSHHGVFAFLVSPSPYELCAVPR

NACHT, LRR and PYD domains-containing protein 3 (Mus musculus), sequence (Q8R4B8 whole entry, the tested form may be a part): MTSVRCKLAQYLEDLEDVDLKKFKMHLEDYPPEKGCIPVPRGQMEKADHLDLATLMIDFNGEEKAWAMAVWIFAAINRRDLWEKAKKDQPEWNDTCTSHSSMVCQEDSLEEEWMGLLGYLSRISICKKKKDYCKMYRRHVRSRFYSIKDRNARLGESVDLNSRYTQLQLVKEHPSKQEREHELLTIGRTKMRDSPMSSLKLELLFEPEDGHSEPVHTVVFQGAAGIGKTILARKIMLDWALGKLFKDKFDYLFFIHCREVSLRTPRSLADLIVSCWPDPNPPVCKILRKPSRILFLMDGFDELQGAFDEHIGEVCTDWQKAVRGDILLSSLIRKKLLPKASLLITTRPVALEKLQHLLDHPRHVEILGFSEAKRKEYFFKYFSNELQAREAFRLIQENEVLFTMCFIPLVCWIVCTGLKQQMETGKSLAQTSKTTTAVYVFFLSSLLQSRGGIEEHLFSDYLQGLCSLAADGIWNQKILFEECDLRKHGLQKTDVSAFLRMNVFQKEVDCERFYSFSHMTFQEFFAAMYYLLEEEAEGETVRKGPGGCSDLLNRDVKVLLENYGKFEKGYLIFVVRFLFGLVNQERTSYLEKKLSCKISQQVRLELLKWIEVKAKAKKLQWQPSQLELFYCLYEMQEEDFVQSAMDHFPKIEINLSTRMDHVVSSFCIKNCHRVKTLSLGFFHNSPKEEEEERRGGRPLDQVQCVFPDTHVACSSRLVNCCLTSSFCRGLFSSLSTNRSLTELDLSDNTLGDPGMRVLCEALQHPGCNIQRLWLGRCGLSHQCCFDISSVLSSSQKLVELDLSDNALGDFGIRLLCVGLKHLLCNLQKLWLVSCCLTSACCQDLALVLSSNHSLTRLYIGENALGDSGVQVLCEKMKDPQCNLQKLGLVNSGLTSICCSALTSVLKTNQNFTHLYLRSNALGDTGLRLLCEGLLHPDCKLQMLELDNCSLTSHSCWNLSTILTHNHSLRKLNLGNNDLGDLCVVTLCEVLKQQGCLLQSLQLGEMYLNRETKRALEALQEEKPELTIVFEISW
Mu-type opioid receptor (Homo sapiens), sequence (P35372 whole entry, the tested form may be a part): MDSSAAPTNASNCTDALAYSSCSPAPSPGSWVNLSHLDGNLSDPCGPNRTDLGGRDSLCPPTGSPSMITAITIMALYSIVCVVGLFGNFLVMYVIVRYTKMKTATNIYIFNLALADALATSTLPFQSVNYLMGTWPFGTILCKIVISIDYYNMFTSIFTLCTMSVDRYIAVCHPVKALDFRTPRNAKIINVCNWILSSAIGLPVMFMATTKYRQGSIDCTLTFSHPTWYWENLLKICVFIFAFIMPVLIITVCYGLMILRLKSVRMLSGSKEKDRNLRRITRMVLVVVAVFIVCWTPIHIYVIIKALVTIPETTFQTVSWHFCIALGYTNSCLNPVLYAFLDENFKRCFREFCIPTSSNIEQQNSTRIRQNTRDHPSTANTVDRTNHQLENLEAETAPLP
Cannabinoid receptor 2 (Homo sapiens), sequence (P34972 whole entry): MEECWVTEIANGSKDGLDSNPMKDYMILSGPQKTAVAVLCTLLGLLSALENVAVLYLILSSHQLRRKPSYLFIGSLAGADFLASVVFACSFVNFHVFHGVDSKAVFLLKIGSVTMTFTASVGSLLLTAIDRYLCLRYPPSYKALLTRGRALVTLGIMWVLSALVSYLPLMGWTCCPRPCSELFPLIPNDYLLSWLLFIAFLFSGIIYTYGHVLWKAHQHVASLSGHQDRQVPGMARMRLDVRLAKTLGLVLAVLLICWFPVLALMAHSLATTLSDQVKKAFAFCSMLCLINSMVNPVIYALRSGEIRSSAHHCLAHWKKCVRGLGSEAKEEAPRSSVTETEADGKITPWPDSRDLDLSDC
Glucocorticoid receptor (Homo sapiens), sequence (P04150 whole entry): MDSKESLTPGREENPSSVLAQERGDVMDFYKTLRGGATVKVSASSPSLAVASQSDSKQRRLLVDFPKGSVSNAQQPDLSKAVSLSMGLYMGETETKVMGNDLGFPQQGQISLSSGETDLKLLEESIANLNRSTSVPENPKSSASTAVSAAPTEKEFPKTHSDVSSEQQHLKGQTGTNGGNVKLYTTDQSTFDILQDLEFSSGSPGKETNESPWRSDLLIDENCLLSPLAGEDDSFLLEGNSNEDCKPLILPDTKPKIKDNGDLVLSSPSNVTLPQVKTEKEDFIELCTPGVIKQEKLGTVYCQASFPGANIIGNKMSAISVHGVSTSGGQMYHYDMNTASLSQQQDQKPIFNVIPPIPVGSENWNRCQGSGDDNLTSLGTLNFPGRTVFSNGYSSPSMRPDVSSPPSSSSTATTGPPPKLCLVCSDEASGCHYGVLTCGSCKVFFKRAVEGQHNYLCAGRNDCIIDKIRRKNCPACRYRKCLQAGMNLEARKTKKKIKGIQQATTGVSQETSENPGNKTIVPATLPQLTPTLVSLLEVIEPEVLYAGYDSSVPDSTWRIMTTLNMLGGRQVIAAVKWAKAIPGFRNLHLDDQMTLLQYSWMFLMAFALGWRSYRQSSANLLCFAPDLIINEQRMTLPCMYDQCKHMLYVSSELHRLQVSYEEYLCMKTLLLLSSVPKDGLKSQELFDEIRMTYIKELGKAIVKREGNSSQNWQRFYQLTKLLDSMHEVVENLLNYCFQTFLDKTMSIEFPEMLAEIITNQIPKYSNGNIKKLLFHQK
Transient receptor potential cation channel subfamily V member 1 (Homo sapiens), sequence (Q8NER1 whole entry): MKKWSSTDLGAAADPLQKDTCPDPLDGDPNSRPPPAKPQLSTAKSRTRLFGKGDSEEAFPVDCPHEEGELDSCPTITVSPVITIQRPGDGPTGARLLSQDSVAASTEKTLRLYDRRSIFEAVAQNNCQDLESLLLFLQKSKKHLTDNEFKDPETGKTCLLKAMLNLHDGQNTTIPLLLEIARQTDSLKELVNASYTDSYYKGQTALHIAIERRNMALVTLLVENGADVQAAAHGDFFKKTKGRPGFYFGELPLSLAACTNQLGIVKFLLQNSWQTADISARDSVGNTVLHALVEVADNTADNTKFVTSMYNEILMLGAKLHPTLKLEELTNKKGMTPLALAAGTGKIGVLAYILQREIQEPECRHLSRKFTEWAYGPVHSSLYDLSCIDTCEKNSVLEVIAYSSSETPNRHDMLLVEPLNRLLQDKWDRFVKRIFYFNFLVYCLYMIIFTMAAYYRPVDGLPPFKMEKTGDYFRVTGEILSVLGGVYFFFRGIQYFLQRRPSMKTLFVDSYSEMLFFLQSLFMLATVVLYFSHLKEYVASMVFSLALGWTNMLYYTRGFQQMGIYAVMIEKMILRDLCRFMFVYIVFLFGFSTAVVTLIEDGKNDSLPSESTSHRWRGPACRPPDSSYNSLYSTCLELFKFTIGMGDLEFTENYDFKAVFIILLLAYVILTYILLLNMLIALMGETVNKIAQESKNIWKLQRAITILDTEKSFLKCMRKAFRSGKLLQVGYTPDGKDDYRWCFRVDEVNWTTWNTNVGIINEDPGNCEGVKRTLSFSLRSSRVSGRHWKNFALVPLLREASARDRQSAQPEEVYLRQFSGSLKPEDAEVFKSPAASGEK
P2X purinoceptor 3 (Homo sapiens), sequence (P56373 whole entry): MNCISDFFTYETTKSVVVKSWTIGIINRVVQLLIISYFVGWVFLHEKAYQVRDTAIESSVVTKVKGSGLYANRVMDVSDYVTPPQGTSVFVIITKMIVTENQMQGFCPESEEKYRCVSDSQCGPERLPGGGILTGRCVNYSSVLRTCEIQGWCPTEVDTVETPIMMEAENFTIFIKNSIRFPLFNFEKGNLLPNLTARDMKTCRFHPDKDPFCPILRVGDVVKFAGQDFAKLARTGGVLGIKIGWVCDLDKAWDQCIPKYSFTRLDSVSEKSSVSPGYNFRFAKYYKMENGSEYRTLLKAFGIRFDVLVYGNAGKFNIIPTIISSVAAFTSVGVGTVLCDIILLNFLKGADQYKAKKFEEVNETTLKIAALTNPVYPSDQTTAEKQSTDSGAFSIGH
Cytochrome P450 2C9, sequence (P11712 whole entry, the tested form may be a part): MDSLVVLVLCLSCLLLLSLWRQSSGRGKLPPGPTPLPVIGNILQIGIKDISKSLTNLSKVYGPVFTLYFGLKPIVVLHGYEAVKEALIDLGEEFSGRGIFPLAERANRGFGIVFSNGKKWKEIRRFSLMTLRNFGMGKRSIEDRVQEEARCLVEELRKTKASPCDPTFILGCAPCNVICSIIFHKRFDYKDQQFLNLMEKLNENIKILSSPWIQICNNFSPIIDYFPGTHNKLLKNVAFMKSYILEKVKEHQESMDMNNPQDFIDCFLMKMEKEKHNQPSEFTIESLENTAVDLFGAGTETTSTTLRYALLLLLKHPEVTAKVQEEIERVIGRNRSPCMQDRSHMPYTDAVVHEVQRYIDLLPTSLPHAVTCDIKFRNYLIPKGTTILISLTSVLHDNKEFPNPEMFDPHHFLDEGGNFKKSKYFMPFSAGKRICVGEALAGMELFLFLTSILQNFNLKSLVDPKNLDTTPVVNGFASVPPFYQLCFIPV
NACHT, LRR and PYD domains-containing protein 3, sequence (Q8R4B8 whole entry, the tested form may be a part): as the sequence (Q8R4B8 whole entry, the tested form may be a part) above

C=C1C(=O)O[C@@H]2C[C@@]3(C)CC[C@@H](OC(=O)c4cnc(Cl)cc4Cl)C(=C)[C@@H]3C[C@H]12
0.78 h: Tmax [8]
6.83 h: half-life [13]
active: Activity (BMDM) | Activity (THP-1 [4]) | Activity (Mus musculus [10]) | Activity (Mus musculus [15]) | inhibition (THP-1 [19]) | inhibition [20] | Activity (Mus musculus [21]) | Activity (Mus musculus [22])
< 50%: inhibition [2] | Activity (Homo sapiens) | inhibition [3] | inhibition [5] | inhibition [6] | inhibition [7] | inhibition [11] | Activity [12] | inhibition [17] | Activity [18] | inhibition [23]
0.739 µM: IC50 [14]
> 100 µM: IC50 (Cytochrome P450 2D6)
inactive: inhibition [1] | Activity [9] | inhibition [16]
5.8 µM: IC50 (Cytochrome P450 2C9)
